Measurements taken from US6174907A, “Benzimidazole compounds containing 1,2,4-triazole ring, and compositions and methods of use containing the same” (Fuji Photo Film Co., Ltd., priority 1995, dated 2001).
Like-named read-outs stand apart in the source and are kept apart here.

Key:
[1] = system: mouse peritoneal macrophages; assay: Suppression of foaming of macrophages (cholesterol ester synthesis) in vitro; format: cell-based, mouse (female ICR); conditions: for activity at 5 µM: Mus musculus, Peritoneal macrophage, 16 hours, relative to control as 100%, smaller value = more potent suppression, read-out: Rate of CE synthesis (%)
Description: Activity of the compounds of the present invention for suppressing the foaming of macrophages
(§1) Activity of the compounds of the present invention for suppressing the foaming of macrophages, which triggers arterial sclerosis, was examined by an in vitro experiment using mouse peritoneal macrophages. 15-Week old female ICR mice (Nippon SLC) were subjected to bleeding by cutting off their cervicalis, and Hanks buffer (Nippon Seiyaku) was injected into their peritoneal cavities. After abdominal regions of the mice were massaged, the buffer was recovered immediately, and then the resulting buffer was centrifuged at 1,000 r.p.m. for five minutes to collect peritoneal macrophages. Then, the collected macrophages were suspended in GTI medium (Wako Pure Chemical Industries), and inoculated onto a 24-well microtiter plate. After the macrophages were cultivated at 37° C. under 5% CO2 for two hours, the culture medium was changed with Dulbecco Modified Eagle Medium (MEM, Nippon Seiyaku). The macrophages were further cultivated at 37° C. under 5% CO2 for 16 hours, and then a test compound and liposomes were added to the culture.
1) Test compound: dissolved in DMSO (Wako Pure Chemical Industries),
PC: Phosphatidylcholine (Funakoshi);
PS: Phosphatidylserine (Funakoshi);
DCP: Dicetylphosphate (Funakoshi);
CHOL: Cholesterol (Sigma)
(§2) After cultivation was further continued at 37° C. under 5% CO2 for 16 hours, lipid fraction was extracted with chloroform and methanol. The extracted lipid fraction was dissolved in isopropyl alcohol, and the produced cholesterol ester (CE) was quantified by an enzymatic luminescence method. Yield of the cholesterol ester was calculated as a relative ratio based on yield of the control as 100% where no test compound was added. Cytotoxicity was examined microscopically by observing morphological alteration of cells. In the tables, compound numbers correspond to those of the compounds of present invention described in the examples.

[2] = system: mouse peritoneal macrophages; assay: Cytotoxicity examined microscopically (morphological alteration of cells); format: cell-based, mouse (female ICR); conditions: 5 μM, observed microscopically
Description: as §1, §2

## c1ccc(-c2nc(SCSc3nc4ccccc4[nH]3)[nH]c2-c2ccccc2)cc1 [Control Compound, reference compound]
[1]
  Activity for suppressing the foaming of macrophages (in words): did not exhibit activity for suppressing the foaming of macrophages
[1]; Table 4
  activity at 5 µM: 102%
[2]; Table 4
  Cytotoxicity: Not observed

## CCCc1cc(SCCCCCSc2nc3ccccc3[nH]2)n2ncnc2n1 [Compound B61]
[1]; Table 4
  activity at 5 µM: 12%
[2]; Table 4
  Cytotoxicity: Not observed

## c1ccc2[nH]c(SCCCCCSc3ncnc4cn[nH]c34)nc2c1 [Compound B60]
[1]; Table 4
  activity at 5 µM: 14%
[2]; Table 4
  Cytotoxicity: Not observed

## Cc1cc2nc(SCCCCCSc3nc4cc(Cl)c(Cl)cc4[nH]3)[nH]c2cc1C [Compound A15, 1-(2'-(5',6'-dichlorobenzimidazolyl)thio)-5-(2"-(5",6"-dimethylbenzimidazolyl)thio)pentane]
[1]; Table 3
  activity at 5 µM: 36%
[2]; Table 3
  Cytotoxicity: Not observed

## c1ccc(-n2ccnc2SCCCCCSc2nc3ccccc3[nH]2)cc1 [Compound B3]
[1]; Table 4
  activity at 5 µM: 34%
[2]; Table 4
  Cytotoxicity: Not observed

## Clc1cc2nc(SCCCCCCSc3nc4ccccc4[nH]3)[nH]c2cc1Cl [Compound A12, 1-(2'-(5',6'-dichlorobenzimidazolyl)thio)-6-(2"-benzimidazolylthio)hexane]
[1]; Table 3
  activity at 5 µM: 42%
[2]; Table 3
  Cytotoxicity: Not observed

## c1ccc(-c2cnc(SCCCCCSc3nc4ccccc4[nH]3)n2-c2ccccc2)cc1 [Compound B4]
[1]; Table 4
  activity at 5 µM: 47%
[2]; Table 4
  Cytotoxicity: Not observed

## Cc1nnc(SCCCCCSc2nc3ccccc3[nH]2)o1 [Compound B25]
[1]; Table 4
  activity at 5 µM: 41%
[2]; Table 4
  Cytotoxicity: Not observed

## CC1(C)COC(SCCCCCSc2nc3ccccc3[nH]2)=N1 [Compound B23]
[1]; Table 4
  activity at 5 µM: 38%
[2]; Table 4
  Cytotoxicity: Not observed

## c1ccc2[nH]c(SCCCCCSc3nnc(SCCn4ccnc4)s3)nc2c1 [Compound B21]
[1]; Table 4
  activity at 5 µM: 11%
[2]; Table 4
  Cytotoxicity: Not observed

## CS(=O)(=O)Nc1ccc2[nH]c(SCCCCCSc3nc4ccccc4[nH]3)nc2c1 [Compound A7, 1-(2'-benzimidazolylthio)-5-(2"-(5"-methanesulfonylamino-benzimidazolyl)thio)pentane]
[1]; Table 3
  activity at 5 µM: 22%
[2]; Table 3
  Cytotoxicity: Not observed

## c1ccc(SCCCCSc2nc3ccccc3[nH]2)nc1 [Compound B29]
[1]; Table 4
  activity at 5 µM: 14%
[2]; Table 4
  Cytotoxicity: Not observed

## Clc1ccc2[nH]c(SCCCCCSc3nc4ccccc4[nH]3)nc2c1 [Compound A2, 1-(2'-(5'-chlorobenzimidazolyl)thio)-5-(2"-benzimidazolylthio)pentane]
[1]; Table 3
  activity at 5 µM: 52%
[2]; Table 3
  Cytotoxicity: Not observed

## Cn1c(=O)c2nc(SCCCCCSc3nc4ccccc4[nH]3)[nH]c2n(C)c1=O [Compound B13]
[1]; Table 4
  activity at 5 µM: 26%
[2]; Table 4
  Cytotoxicity: Not observed

## c1ccc2[nH]c(SCCCCCSC3=NCCCN3)nc2c1 [Compound B54]
[1]; Table 4
  activity at 5 µM: 24%
[2]; Table 4
  Cytotoxicity: Not observed

## CNS(=O)(=O)c1ccc2c(c1)nc(SCCCCCSc1ccccn1)n2C [Compound B66]
[1]; Table 4
  activity at 5 µM: 52%
[2]; Table 4
  Cytotoxicity: Not observed

## Clc1cc2nc(SCCCCCSc3nc4ccccc4[nH]3)[nH]c2cc1Cl [Compound A11, 1-(2'-(5',6'-dichlorobenzimidazolyl)thio)-5-(2"-benzimidazolylthio)pentane]
[1]; Table 3
  activity at 5 µM: 9%
[2]; Table 3
  Cytotoxicity: Not observed

## Cc1ccc2[nH]c(SCCCCCSc3nc4ccccc4[nH]3)nc2c1 [Compound A1, 1-(2'-(5'-methylbenzimidazolyl)thio)-5-(2"-benzimidazolylthio)pentane]
[1]; Table 3
  activity at 5 µM: 41%
[2]; Table 3
  Cytotoxicity: Not observed

## CN(C)CCSc1nnc(SCCCCCSc2nc3ccccc3[nH]2)s1 [Compound B20]
[1]; Table 4
  activity at 5 µM: 24%
[2]; Table 4
  Cytotoxicity: Not observed

## N#Cc1ccc2[nH]c(SCCCCCSc3nc4ccccc4[nH]3)nc2c1 [Compound A17, 1-(2'-(5'-cyanobenzimidazolyl)thio)-5-(2"-benzimidazolylthio)pentane]
[1]; Table 3
  activity at 5 µM: 24%
[2]; Table 3
  Cytotoxicity: Not observed

## c1ccc2[nH]c(CCCCCSc3nc4ccccc4[nH]3)nc2c1 [Compound A27, 2-(5-(2'-benzimidazolylthio)pentyl)benzimidazole]
[1]; Table 3
  activity at 5 µM: 48%
[2]; Table 3
  Cytotoxicity: Not observed

## COc1ccc2[nH]c(SCCCCCSc3nc4cc(C)ccc4[nH]3)nc2c1 [Compound A4, 1-(2'-(5'-methoxybenzimidazolyl)thio)-5-(2"-(5"-methylbenzimidazolyl)thio)pentane]
[1]; Table 3
  activity at 5 µM: 41%
[2]; Table 3
  Cytotoxicity: Not observed

## CSc1nnc(SCCCCCSc2nc3ccccc3[nH]2)s1 [Compound B19]
[1]; Table 4
  activity at 5 µM: 21%
[2]; Table 4
  Cytotoxicity: Not observed

## Cc1ccc2[nH]c(SCCCCCSc3ccccn3)nc2c1 [Compound B35]
[1]; Table 4
  activity at 5 µM: 46%
[2]; Table 4
  Cytotoxicity: Not observed

## Cn1c(CCCCCSc2nc3ccccc3n2C)nc2ccccc21 [Compound A26, 1-methyl-2-(5-(2'-(1-methylbenzimidazolyl)thio)pentyl)benzimidazole]
[1]; Table 3
  activity at 5 µM: 35%
[2]; Table 3
  Cytotoxicity: Not observed

## c1ccc2[nH]c(SCCCCCSc3nc4ccccc4s3)nc2c1 [Compound A33, 1-(2'-benzimidazolylthio)-5-(2"-benzothiazolylthio)pentane]
[1]; Table 3
  activity at 5 µM: 13%
[2]; Table 3
  Cytotoxicity: Not observed

## CCC(=O)Nc1ccc2[nH]c(SCCCCCSc3nc4ccccc4[nH]3)nc2c1 [Compound A8, 1-(2'-benzimidazolylthio)-5-(2"-(5"-propionylaminobenzimidazolyl)thio)pentane]
[1]; Table 3
  activity at 5 µM: 24%
[2]; Table 3
  Cytotoxicity: Not observed

## Clc1cc2nc(CCCCCSc3ccccn3)[nH]c2cc1Cl [Compound B44]
[1]; Table 4
  activity at 5 µM: 51%
[2]; Table 4
  Cytotoxicity: Not observed

## c1ccc2[nH]c(SCCCCCSc3nc4ccccc4o3)nc2c1 [Compound A37, 1-(2'-benzimidazolylthio)-5-(2"-benzoxazolylthio)pentane]
[1]; Table 3
  activity at 5 µM: 13%
[2]; Table 3
  Cytotoxicity: Not observed

## CCC(=O)n1c(CCCCCSc2nc3ccccc3n2C(=O)CC)nc2ccccc21 [Compound A24, 1-propionyl-2-(5-(2'-(1-propionylbenzimidazolyl)thio)pentyl)benzimidazole]
[1]; Table 3
  activity at 5 µM: 40%
[2]; Table 3
  Cytotoxicity: Not observed

## c1ccc2[nH]c(SCCCCCSC3=NCCS3)nc2c1 [Compound B15]
[1]; Table 4
  activity at 5 µM: 11%
[2]; Table 4
  Cytotoxicity: Not observed

## CNS(=O)(=O)c1ccc2c(c1)nc(SCCCCCSc1nc3ccccc3[nH]1)n2C [Compound A23, 1-(2'-(1'-methyl-5'-methylsulfamoylbenzimidazolyl)thio)-5-(2"-benzimidazolylthio)pentane]
[1]; Table 3
  activity at 5 µM: 34%
[2]; Table 3
  Cytotoxicity: Not observed

## Cc1ccnc(SCCCCCSc2nc3ccccc3[nH]2)n1 [Compound B50]
[1]; Table 4
  activity at 5 µM: 22%
[2]; Table 4
  Cytotoxicity: Not observed

## FC(F)(F)c1ccc2c(SCCCCCSc3nc4ccccc4[nH]3)ccnc2c1 [Compound B63]
[1]; Table 4
  activity at 5 µM: 15%
[2]; Table 4
  Cytotoxicity: Not observed

## c1ccc2[nH]c(CCCCCCCSc3nc4ccccc4[nH]3)nc2c1 [Compound A31, 2-(7-(2'-benzimidazolylthio)heptyl)benzimidazole]
[1]; Table 3
  activity at 5 µM: 53%
[2]; Table 3
  Cytotoxicity: Not observed

## c1ccc2[nH]c(SCCCCCSc3nnc[nH]3)nc2c1 [Compound B5]
[1]; Table 4
  activity at 5 µM: 14%
[2]; Table 4
  Cytotoxicity: Not observed

## Cc1cc2nc(SCCCCCSc3nc4ccccc4o3)[nH]c2cc1C [Compound A38]
[1]; Table 3
  activity at 5 µM: 16%
[2]; Table 3
  Cytotoxicity: Not observed

## c1ccc(SCCCCCCCCSc2nc3ccccc3[nH]2)nc1 [Compound B32]
[1]; Table 4
  activity at 5 µM: 37%
[2]; Table 4
  Cytotoxicity: Not observed

## CCOC(=O)c1ccc2[nH]c(SCCCCCSc3nc4ccccc4[nH]3)nc2c1 [Compound A9, 1-(2'-(5'-ethoxycarbonylbenzimidazolyl)thio)-5-(2"-benzimidazolylthio)pentane]
[1]; Table 3
  activity at 5 µM: 28%
[2]; Table 3
  Cytotoxicity: Not observed

## c1ccc(-c2noc(SCCCCCSc3nc4ccccc4[nH]3)n2)cc1 [Compound B27]
[1]; Table 4
  activity at 5 µM: 15%
[2]; Table 4
  Cytotoxicity: Not observed

## c1ccc2[nH]c(SCCCCCSc3ncnc4nc[nH]c34)nc2c1 [Compound B59]
[1]; Table 4
  activity at 5 µM: 9.2%
[2]; Table 4
  Cytotoxicity: Not observed

## Cc1ccc2[nH]c(SCCCCCCCCSc3nc4ccccc4[nH]3)nc2c1 [Compound A20, 1-(2'-(5'-methylbenzimidazolyl)thio)-8-(2"-benzimidazolylthio)octane]
[1]; Table 3
  activity at 5 µM: 61%
[2]; Table 3
  Cytotoxicity: Not observed

## CCC(=O)n1c(SCCCCCSc2ccccn2)nc2ccccc21 [Compound B65, 5-(2'-(1'-propionylbenzimidazolyl)thio)-1-(2"-pyridylthio)pentane]
[1]; Table 4
  activity at 5 µM: 22%
[2]; Table 4
  Cytotoxicity: Not observed
